# Measured values taken from patent US20250034216A1, “STEREOSELECTIVE COVALENT LIGANDS FOR ONCOGENIC AND IMMUNOLOGICAL PROTEINS” (The Scripps Research Institute, priority 2021, published 2025).
# How the values were obtained:
# ZBED4_C599 = target: T1, ZBED4_C599 (Homo sapiens, UniProt O75132); test: IA-DTB cysteine engagement; type: binding; settings: 22Rv1 cells, 20 μM probe, 1 h, relative to DMSO
# T1 construct: endogenous in cells; host or cells: 22Rv1
# T1 sequence (O75132 1-1171): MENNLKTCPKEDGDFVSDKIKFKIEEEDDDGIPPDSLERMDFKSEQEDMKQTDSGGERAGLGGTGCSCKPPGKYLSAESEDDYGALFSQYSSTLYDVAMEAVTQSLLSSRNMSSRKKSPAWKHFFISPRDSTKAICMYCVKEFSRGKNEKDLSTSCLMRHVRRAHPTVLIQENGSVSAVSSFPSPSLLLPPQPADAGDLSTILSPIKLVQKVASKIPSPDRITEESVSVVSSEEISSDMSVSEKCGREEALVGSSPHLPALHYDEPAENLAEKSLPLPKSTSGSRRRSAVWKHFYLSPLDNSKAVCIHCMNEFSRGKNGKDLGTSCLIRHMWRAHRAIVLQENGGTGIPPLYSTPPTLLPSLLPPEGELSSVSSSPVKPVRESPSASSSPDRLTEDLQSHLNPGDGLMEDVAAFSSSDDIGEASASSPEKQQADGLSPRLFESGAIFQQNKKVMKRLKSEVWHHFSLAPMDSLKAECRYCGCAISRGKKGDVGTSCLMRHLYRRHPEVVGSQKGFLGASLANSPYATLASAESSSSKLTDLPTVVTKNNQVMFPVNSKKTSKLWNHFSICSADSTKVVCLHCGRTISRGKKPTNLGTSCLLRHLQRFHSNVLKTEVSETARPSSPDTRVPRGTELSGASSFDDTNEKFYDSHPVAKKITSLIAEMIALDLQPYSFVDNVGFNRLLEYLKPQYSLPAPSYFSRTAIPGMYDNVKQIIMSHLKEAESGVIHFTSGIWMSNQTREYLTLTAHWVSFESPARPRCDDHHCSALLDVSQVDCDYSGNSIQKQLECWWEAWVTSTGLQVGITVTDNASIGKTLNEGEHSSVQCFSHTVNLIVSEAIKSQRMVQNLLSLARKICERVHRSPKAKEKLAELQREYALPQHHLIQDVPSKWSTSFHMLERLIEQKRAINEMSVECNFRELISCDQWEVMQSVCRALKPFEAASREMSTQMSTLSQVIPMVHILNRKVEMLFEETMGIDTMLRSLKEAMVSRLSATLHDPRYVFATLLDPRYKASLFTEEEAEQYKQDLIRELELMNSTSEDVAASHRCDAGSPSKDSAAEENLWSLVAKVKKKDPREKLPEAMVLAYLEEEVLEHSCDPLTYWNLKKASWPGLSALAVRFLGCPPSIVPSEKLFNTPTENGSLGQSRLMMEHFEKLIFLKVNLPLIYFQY
# Procedure, shortened: (§1)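 Cells were treated in situ with electrophilic probes, then lysed, and the lysates (2 mg/mL protein) were labeled with IA-DTB for 1 h at ambient temperature. After reduction, alkylation and trypsin digestion, labeled peptides were streptavidin-enriched, TMT-labeled and fractionated. Engagement ratios are probe vs DMSO reporter intensities, averaged across replicates.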
# NUDT8_C207 = target: T2, NUDT8_C207 (Homo sapiens, UniProt Q8WV74); test: IA-DTB cysteine engagement; type: binding; settings: 22Rv1 cells, 20 μM probe, 1 h, relative to DMSO
# T2 construct: endogenous in cells; host or cells: 22Rv1
# T2 sequence (Q8WV74 1-236): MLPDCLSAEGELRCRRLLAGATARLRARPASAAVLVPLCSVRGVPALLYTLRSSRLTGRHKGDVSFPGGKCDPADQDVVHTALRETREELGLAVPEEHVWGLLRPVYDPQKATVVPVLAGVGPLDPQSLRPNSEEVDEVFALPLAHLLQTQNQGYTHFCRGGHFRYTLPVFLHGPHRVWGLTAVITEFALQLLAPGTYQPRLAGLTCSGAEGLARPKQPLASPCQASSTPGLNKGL
# Procedure, shortened: as §1
% engagement ZBED4_C599 (ZBED4_C599),% engagement NUDT8_C207 (NUDT8_C207),Structure (SMILES)
83.5%,88.75%,"C=CC(=O)N1C[C@H](c2ccc(Br)cc2)[C@H]1C(=O)Nc1cccc2cccnc12 [MY-3B, (2S,3S)-1-acryloyl-3-(4-bromophenyl)-N-(quinolin-8-yl)azetidine-2-carboxamide]"
39%,78.5%,"C=CC(=O)N1C[C@H](c2ccc(Br)cc2)[C@@H]1C(=O)Nc1cccc2cccnc12 [MY-1B, (2R,3S)-1-acryloyl-3-(4-bromophenyl)-N-(quinolin-8-yl)azetidine-2-carboxamide]"
21%,64.25%,"C=CC(=O)N1C[C@H](c2ccc(Br)cc2)[C@H]1C(=O)Nc1cccc2cccnc12 [MY-3A, (2S,3S)-1-acryloyl-3-(4-bromophenyl)-N-(quinolin-8-yl)azetidine-2-carboxamide]"
16%,71.5%,"C=CC(=O)N1C[C@@H](c2ccc(Br)cc2)[C@H]1C(=O)Nc1cccc2cccnc12 [MY-1A, (2S,3R)-1-acryloyl-3-(4-bromophenyl)-N-(quinolin-8-yl)azetidine-2-carboxamide]"
